This is an account of results in US20240360194A1, “New Peptides as Potent and Selective GIP Receptor Agonists” (Sanofi, priority 2021, published 2024).

Molecules are shown by their SMILES. Like-named read-outs stand apart in the source and are kept apart here. Numbered stars: 1 amine (or outer) side, 2 acyl side, 3 side chain; on linkers, the order of the positions; unused ones are H or OH. Square brackets hold non-standard residues; d marks the D form. Side chains are listed from the residue outwards. Peptide text beside a SMILES is read from it. * marks the point of attachment. C18 diacid = O=C(O)CCCCCCCCCCCCCCCCC(=O)*; γGlu = O=C(O)[C@H](CCC(=O)[*:2])N[*:1]; dIva = CC[C@@](C)(N)C(=O)O; AEEA = NCCOCCOCC(=O)O; Aib = CC(C)(N)C(=O)O

In data set [1] the target is T1, human GIP receptor (hGIPR) (Homo sapiens, UniProt P48546).
T1 sequence (P48546 22-466): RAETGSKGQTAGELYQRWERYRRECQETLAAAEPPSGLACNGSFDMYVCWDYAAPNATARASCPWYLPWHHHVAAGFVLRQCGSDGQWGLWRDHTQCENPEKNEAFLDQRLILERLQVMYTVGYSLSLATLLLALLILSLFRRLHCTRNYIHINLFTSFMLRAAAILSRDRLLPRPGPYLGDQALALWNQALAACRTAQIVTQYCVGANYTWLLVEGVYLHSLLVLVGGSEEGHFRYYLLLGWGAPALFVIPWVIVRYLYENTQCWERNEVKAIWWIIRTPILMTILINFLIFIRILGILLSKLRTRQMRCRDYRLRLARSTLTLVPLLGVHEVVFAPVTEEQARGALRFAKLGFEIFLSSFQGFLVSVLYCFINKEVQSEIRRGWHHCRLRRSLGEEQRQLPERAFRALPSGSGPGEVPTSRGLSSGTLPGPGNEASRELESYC
Briefly: Binding assay, displacement of [125I]GIP from HEK-293 membranes over-expressing GIPR (SPA). The conditions noted are these: [125I]GIP displacement. The procedure, abridged:
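Membranes from HEK-293 cells over-expressing human GIPR or GLP-1R, isolated by homogenising, sonicating and ultracentrifuging at 100000×g into HEPES/EDTA/NaCl buffer with protease inhibitors, were used for binding.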
(Loss of bound radioactivity is the signal in a displacement assay; it reports binding, not function.)

In a further data set the target is T2, human GIP receptor (Homo sapiens, UniProt P48546).
T2 construct: human adipocytes endogenously expressing the human GIP receptor; host or cells: human preadipocytes (Lonza) differentiated to adipocytes
T2 sequence (P48546 22-466): T1 sequence (P48546 22-466)
Briefly: In vitro cellular cAMP assay for GIP receptor efficacy (human adipocytes). The class given is cell-based. The conditions noted are these: for EC50: read-out: hGIPR EC50; for Emax: read-out: hGIPR Emax. The procedure, abridged: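 Human preadipocytes expanded, then differentiated 6 days (insulin, dexamethasone, PPARγ agonist, 200 μM IBMX, L-thyroxine) before plating at 5000 cells/well. Test compound applied 30 min at room temperature; cAMP measured by HTRF after 1 h with lysis-buffer reagents, read as 665/620 nm fluorescence ratio.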
A general note: cAMP levels reflect the balance of adenylyl cyclase and phosphodiesterase activity.

Data set [2] is described as follows: Pharmacokinetic evaluation in rats. The class given is in vivo. The conditions noted are these: male, SD, rat. On the procedure: Compounds were administered in a suitable buffer system, e.g. PBS buffer solution at pH7.4 or DPBS solution at concentrations of 0.05, 0.1, 0.5 or 1 mg/ml depending on dose, species and administration volume. Male SD rats were dosed 0.25 mg/kg, 0.5 mg/kg or 1 mg/kg intravenously (i.v.) or subcutaneously (s.c.). Blood samples were collected after 0.08, 0.25, 0.5, 1, 2, 4, 8, 24, 32, and 48 h post i.v. application and 0.25, 0.5, 1, 2, 4, 8, 24, 32, and 48 h post s.c. application, respectively. Plasma samples were analysed after protein precipitation via liquid chromatography mass spectrometry (LC/MS). PK parameters and half-life were calculated using Phoenix-WinNonlin 8.1 using a non-compartmental model and linear trapezoidal interpolation calculation. Pharmacokinetic profiles were determined as described in Methods.

The target in data set [3] is human GLP-1 receptor (hGLP-1R) (Homo sapiens, UniProt P43220). Briefly: In vitro cellular cAMP assay for GLP-1 receptor efficacy (HEK-293 cell line over-expressing receptor). The class given is cell-based. To be noted: HEK-293, 0.1% BSA.
Sequence of human GLP-1 receptor (hGLP-1R) (P43220 24-463): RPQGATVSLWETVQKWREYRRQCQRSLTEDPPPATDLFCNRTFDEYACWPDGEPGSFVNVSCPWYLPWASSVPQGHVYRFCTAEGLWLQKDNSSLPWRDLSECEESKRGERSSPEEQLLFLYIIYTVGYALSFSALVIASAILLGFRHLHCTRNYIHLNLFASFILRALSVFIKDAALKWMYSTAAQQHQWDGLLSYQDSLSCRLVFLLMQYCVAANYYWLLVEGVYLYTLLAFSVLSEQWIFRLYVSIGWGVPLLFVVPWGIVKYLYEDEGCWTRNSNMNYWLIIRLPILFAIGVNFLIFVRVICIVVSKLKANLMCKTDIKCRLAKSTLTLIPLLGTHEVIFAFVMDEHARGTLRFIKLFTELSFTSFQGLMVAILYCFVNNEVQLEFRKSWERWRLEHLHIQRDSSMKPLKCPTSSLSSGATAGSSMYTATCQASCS

Broadly, the IC50 is the concentration that inhibits the measured activity by half. Low values mean higher potency, high ones lower potency. Broadly, the EC50 is the midpoint of the concentration-response curve. In general, Emax refers to the size of the effect at its maximum, as opposed to the concentration needed. What is called Cmax is the maximum level reached in the sampled fluid or tissue. Consider `CC[C@H](C)[C@H](NC(=O)[C@H](Cc1ccccc1)NC(=O)[C@H](CCC(=O)O)NC(=O)[C@H](CCC(=O)O)NC(=O)[C@H](CCC(N)=O)NC(=O)[C@H](Cc1c[nH]cn1)NC(=O)[C@@H](NC(=O)[C@H](CCCNC(=N)N)NC(=O)[C@H](CC(=O)O)NC(=O)[C@H](CCCCNC(=O)COCCOCCNC(=O)COCCOCCNC(=O)CC[C@H](NC(=O)CCCCCCCCCCCCCCCCC(=O)O)C(=O)O)NC(=O)C(C)(C)NC(=O)[C@@H](NC(=O)[C@H](CO)NC(=O)[C@H](CC(C)C)NC(=O)[C@H](CC(=O)O)NC(=O)[C@H](CO)NC(=O)[C@@H](NC(=O)[C@H](Cc1ccccc1)NC(=O)[C@@H](NC(=O)CNC(=O)[C@H](CCC(=O)O)NC(=O)C(C)(C)NC(=O)[C@@H](N)Cc1ccc(O)cc1)[C@@H](C)O)[C@@H](C)CC)[C@@H](C)CC)[C@@H](C)CC)C(=O)N[C@@H](CCC(N)=O)C(=O)N[C@@H](Cc1c[nH]c2ccccc12)C(=O)N[C@@H](CC(C)C)C(=O)N[C@@H](CC(C)C)C(=O)N[C@@H](C)C(=O)N[C@@H](CCC(N)=O)C(=O)NCC(=O)N1CCC[C@H]1C(=O)N[C@@H](CO)C(=O)N[C@@H](CO)C(=O)NCC(=O)N[C@@H](C)C(=O)N1CCC[C@H]1C(=O)N1CCC[C@H]1C(=O)N1CCC[C@H]1C(=O)N[C@@H](CO)C(N)=O` [SEQ ID NO: 35, H2N-Y-Aib-E-G-T-F-I-S-D-L-S-I-Aib-K[{AEEA}2-gGlu-C18OH]-DRIHQEEFIQWLLAQGPSSGAPPPS-NH2] (H-Y[Aib]EGTFISDLSI[Aib]K([AEEA-AEEA-γGlu-C18 diacid])DRIHQEEFIQWLLAQGPSSGAPPPS-NH2), for which the IC50 in data set [1] came out at 600 pM. Moreover, at human GIP receptor, the EC50 came to 1300 pM and the Emax turned out to be 120%. In data set [2] (in vivo, iv, 0.25 mg/kg), this molecule had an AUC(0-t) of 41600 ng·h/mL, a Cmax of 5380 ng/mL, a clearance of 5.51 mL/h/kg and a half-life of 14.5 h. In data set [2] (in vivo, sc, 0.5 mg/kg), this molecule gave an AUC(0-t) of 49900 ng·h/mL, a Cmax of 2010 ng/mL, an F of 73% and a half-life of 14.3 h. Further, in data set [3], the EC50 is greater than 10000 pM.

In data set [1], `CC[C@H](C)[C@H](NC(=O)[C@H](CCCNC(=N)N)NC(=O)[C@H](CC(=O)O)NC(=O)[C@H](CCCCNC(=O)COCCOCCNC(=O)COCCOCCNC(=O)CC[C@H](NC(=O)CCCCCCCCCCCCCCCCC(=O)O)C(=O)O)NC(=O)C(C)(C)NC(=O)[C@@H](NC(=O)[C@H](CO)NC(=O)[C@H](CC(C)C)NC(=O)[C@H](CC(=O)O)NC(=O)[C@H](CO)NC(=O)[C@@H](NC(=O)[C@H](Cc1ccccc1)NC(=O)[C@@H](NC(=O)CNC(=O)[C@H](CCC(=O)O)NC(=O)C(C)(C)NC(=O)[C@@H](N)Cc1ccc(O)cc1)[C@@H](C)O)[C@@H](C)CC)[C@@H](C)CC)C(=O)N[C@@H](Cc1c[nH]cn1)C(=O)N[C@@H](CCC(N)=O)C(=O)NC(C)(C)C(=O)N[C@@H](CCC(=O)O)C(=O)N[C@@H](Cc1ccccc1)C(=O)N[C@H](C(=O)N[C@@H](CCC(=O)O)C(=O)N[C@@H](Cc1c[nH]c2ccccc12)C(=O)N[C@@H](CC(C)C)C(=O)N[C@@H](CC(C)C)C(=O)N[C@@H](C)C(=O)N[C@@H](CCC(N)=O)C(=O)N[C@@H](CCCNC(=N)N)C(=O)NCC(N)=O)[C@@H](C)CC` [SEQ ID NO: 6, H2N-Y-Aib-E-G-T-F-I-S-D-L-S-I-Aib-K[{AEEA}2-gGlu-C18OH]-D-R-I-H-Q-Aib-E-F-I-E-W-L-L-A-Q-R-G-NH2] returned an IC50 of 500 pM. Besides, the EC50 at human GIP receptor was 1000 pM; in data set [3] it was greater than 10000 pM. Further, the Emax on human GIP receptor turned out to be 121%. Also, the AUC(0-t) in data set [2] (plasma, iv, rats, 0.25 mg/kg i.v., read-out: AUClast) was found to be 35700 ng·h/mL; in data set [2] (plasma, sc, rats, 0.5 mg/kg s.c., read-out: AUClast), 69100 ng·h/mL. The clearance in data set [2] (plasma, iv, rats, 0.25 mg/kg i.v., read-out: Cl (converted)) was 6.7 mL/h/kg. In addition, the Cmax in data set [2] (plasma, iv, rats, 0.25 mg/kg i.v., read-out: Cmax) was found to be 4620 ng/mL; in data set [2] (plasma, sc, rats, 0.5 mg/kg s.c., read-out: Cmax), 2880 ng/mL. The half-life was 11.2 h in data set [2] (plasma, iv, rats, 0.25 mg/kg i.v., read-out: T1/2 (converted)) and 9.7 h in data set [2] (plasma, sc, rats, 0.5 mg/kg s.c., read-out: T1/2 (converted)). Also, the bioavailability in data set [2] (plasma, sc, rats, 0.5 mg/kg s.c., read-out: F) was determined as 98%.

Molecule `CC[C@H](C)[C@H](NC(=O)[C@H](CCCNC(=N)N)NC(=O)[C@H](CC(=O)O)NC(=O)[C@H](CCCCNC(=O)COCCOCCNC(=O)COCCOCCNC(=O)CC[C@H](NC(=O)CCCCCCCCCCCCCCCCC(=O)O)C(=O)O)NC(=O)C(C)(C)NC(=O)[C@@H](NC(=O)[C@H](CO)NC(=O)[C@H](CC(C)C)NC(=O)[C@H](CC(=O)O)NC(=O)[C@H](CO)NC(=O)[C@@H](NC(=O)[C@@](C)(CC)NC(=O)[C@@H](NC(=O)CNC(=O)[C@H](CCC(=O)O)NC(=O)C(C)(C)NC(=O)[C@@H](N)Cc1ccc(O)cc1)[C@@H](C)O)[C@@H](C)CC)[C@@H](C)CC)C(=O)N[C@@H](Cc1c[nH]cn1)C(=O)N[C@@H](CCC(N)=O)C(=O)NC(C)(C)C(=O)N[C@@H](CCC(=O)O)C(=O)N[C@@H](Cc1ccccc1)C(=O)N[C@H](C(=O)N[C@@H](CCC(=O)O)C(=O)N[C@@H](Cc1c[nH]c2ccccc12)C(=O)N[C@@H](CC(C)C)C(=O)N[C@@H](CC(C)C)C(=O)N[C@@H](C)C(=O)N[C@@H](CCC(N)=O)C(=O)N[C@@H](CCCNC(=N)N)C(=O)NCC(N)=O)[C@@H](C)CC` [SEQ ID NO: 16, H2N-Y-Aib-E-G-T-Iva-I-S-D-L-S-I-Aib-K[{AEEA}2-gGlu-C18OH]-D-R-I-H-Q-Aib-E-F-I-E-W-L-L-A-Q-R-G-NH2] yielded an IC50 in data set [1] of 100 pM. Moreover, at human GIP receptor, the EC50 was found to be 600 pM and the Emax came to 91%. Besides, in data set [2] (in vivo, iv, 0.25 mg/kg), the AUC(0-t) amounted to 41500 ng·h/mL, the Cmax is 7050 ng/mL, the clearance was 5.74 mL/h/kg and the half-life is 11.5 h. In data set [2] (in vivo, sc, 0.5 mg/kg), this molecule had an AUC(0-t) of 43900 ng·h/mL, a Cmax of 1720 ng/mL, a bioavailability of 55% and a half-life of 10.8 h. The EC50 in data set [3] is greater than 10000 pM.

In data set [1], `CC[C@H](C)[C@H](NC(=O)[C@H](CCCNC(=N)N)NC(=O)[C@H](CC(=O)O)NC(=O)[C@H](CCCCNC(=O)COCCOCCNC(=O)COCCOCCNC(=O)CC[C@H](NC(=O)CCCCCCCCCCCCCCCCC(=O)O)C(=O)O)NC(=O)C(C)(C)NC(=O)[C@@H](NC(=O)[C@H](CO)NC(=O)[C@H](CC(C)C)NC(=O)[C@H](CC(=O)O)NC(=O)[C@H](CO)NC(=O)[C@@H](NC(=O)[C@H](Cc1ccccc1)NC(=O)[C@@H](NC(=O)CNC(=O)[C@H](CCC(=O)O)NC(=O)C(C)(C)NC(=O)[C@@H](N)Cc1ccc(O)cc1)[C@@H](C)O)[C@@H](C)CC)[C@@H](C)CC)C(=O)N[C@@H](Cc1c[nH]cn1)C(=O)N[C@@H](CCC(N)=O)C(=O)NC(C)(C)C(=O)N[C@@H](CCC(=O)O)C(=O)N[C@@H](Cc1ccccc1)C(=O)N[C@H](C(=O)N[C@@H](CCC(=O)O)C(=O)N[C@@H](Cc1c[nH]c2ccccc12)C(=O)N[C@](C)(CC)C(=O)N[C@@H](CC(C)C)C(=O)N[C@@H](C)C(=O)N[C@@H](CCC(N)=O)C(=O)NCC(=O)N1CCC[C@H]1C(=O)N[C@@H](CO)C(=O)N[C@@H](CO)C(=O)NCC(=O)N[C@@H](C)C(=O)N1CCC[C@H]1C(=O)N1CCC[C@H]1C(=O)N1CCC[C@H]1C(=O)N[C@@H](CO)C(N)=O)[C@@H](C)CC` [SEQ ID NO: 31, H2N-Y-Aib-E-G-T-F-I-S-D-L-S-I-Aib-K[{AEEA}2-gGlu-C18OH]-D-R-I-H-Q-Aib-E-F-I-E-W-Iva-L-A-Q-G-P-S-S-G-A-P-P-P-S-NH2] (H-Y[Aib]EGTFISDLSI[Aib]K([AEEA-AEEA-γGlu-C18 diacid])DRIHQ[Aib]EFIEW[dIva]LAQGPSSGAPPPS-NH2) had an IC50 of 300 pM. Moreover, at human GIP receptor, the EC50 is 700 pM and the Emax was 121%. The molecule also displayed an EC50 in data set [3] greater than 10000 pM.
